# In patent US6043217A, “Amide derivative of amythiamicin” (Zaidan Hojin Biseibutsu Kagaku Kenyu Kai, priority 1996, dated 2000):
# Assays:
# Format in all cases: cell-based
# [1] = tested on: Staphylococcus aureus FDA 209P; test: MIC, standard serial dilution method; details: Muller-Hinton agar medium, 37° C.
# [2] = tested on: Staphylococcus aureus Smith; test: MIC, standard serial dilution method; details: Muller-Hinton agar medium, 37° C.
# [3] = tested on: Staphylococcus aureus MS 9610; test: MIC, standard serial dilution method; details: Muller-Hinton agar medium, 37° C.
# [4] = tested on: Staphylococcus aureus No. 5 (MRSA); test: MIC, standard serial dilution method; details: Muller-Hinton agar medium, 37° C.
# [5] = tested on: Staphylococcus aureus No. 17 (MRSA); test: MIC, standard serial dilution method; details: Muller-Hinton agar medium, 37° C.
# [6] = tested on: Staphylococcus aureus MS 16526; test: MIC, standard serial dilution method; details: Muller-Hinton agar medium, 37° C.
# [7] = tested on: Staphylococcus aureus TY-0428; test: MIC, standard serial dilution method; details: Muller-Hinton agar medium, 37° C.
# [8] = tested on: Micrococcus luteus FDA 16; test: MIC, standard serial dilution method; details: Muller-Hinton agar medium, 37° C.
# [9] = tested on: Micrococcus luteus IFO 3333; test: MIC, standard serial dilution method; details: Muller-Hinton agar medium, 37° C.
# [10] = tested on: Micrococcus luteus PIC 1001; test: MIC, standard serial dilution method; details: Muller-Hinton agar medium, 37° C.
# Bacillus anthracis = details: Muller-Hinton agar medium, 37° C.
# [11] = tested on: Bacillus subtilis NRRL B-558; test: MIC, standard serial dilution method; details: Muller-Hinton agar medium, 37° C.
# [12] = tested on: Bacillus subtilis PCI 219; test: MIC, standard serial dilution method; details: Muller-Hinton agar medium, 37° C.
# [13] = tested on: Bacillus cereus ATCC 10702; test: MIC, standard serial dilution method; details: Muller-Hinton agar medium, 37° C.
# [14] = tested on: Corynebacterium bovis 1810; test: MIC, standard serial dilution method; details: Muller-Hinton agar medium, 37° C.
# Escherichia coli NIHJ = test: MIC, standard serial dilution method; details: Muller-Hinton agar medium, 37° C.
# Escherichia coli K-12 = test: MIC, standard serial dilution method; details: Muller-Hinton agar medium, 37° C.
# Escherichia coli BEM 11 = test: MIC, standard serial dilution method; details: Muller-Hinton agar medium, 37° C.
# [15] = tested on: Escherichia coli BEM 1121; test: MIC, standard serial dilution method; details: Muller-Hinton agar medium, 37° C.
# Escherichia coli BE 1186 = test: MIC, standard serial dilution method; details: Muller-Hinton agar medium, 37° C.
# [16] = tested on: Shigella dysenteria JS 11910; test: MIC, standard serial dilution method; details: Muller-Hinton agar medium, 37° C.
# [17] = tested on: Escherichia coli K-12 ML 1692; test: MIC, standard serial dilution method; details: Muller-Hinton agar medium, 37° C.
# Procedure: (§1) The antibacterial activities of the amythiamicin amide derivative of the general formula (I) according to this invention are now concretely described. Compounds No. 1 to No. 11 according to this invention, which were respectively prepared in Examples 1 to 11 hereinafter given, were tested as the test compounds for their minimum inhibitory concentrations (MIC.) (μg/ml) against growth of a variety of test microorganisms by a standard serial dilution method. In the tests, the incubation medium used was Muller-Hinton agar medium and the incubation temperature was 37° C. The test results are shown as antibacterial spectra in the following Tables 2 and 3.
# [18] = tested on: Shigella clexnerl JS 11749; test: MIC, standard serial dilution method; details: Muller-Hinton agar medium, 37° C.
# Procedure: as §1
# Shigella sonnei JS 11746 = test: MIC, standard serial dilution method; details: Muller-Hinton agar medium, 37° C.
# Procedure: as §1
# Salmonella typhi T-63 = test: MIC, standard serial dilution method; details: Muller-Hinton agar medium, 37° C.
# [19] = tested on: Salmonella enteritidis 1891; test: MIC, standard serial dilution method; details: Muller-Hinton agar medium, 37° C.
# Proteus vulgaris OX 19 = test: MIC, standard serial dilution method; details: Muller-Hinton agar medium, 37° C.
# [20] = tested on: Proteus mirabilis IFM OM-9; test: MIC, standard serial dilution method; details: Muller-Hinton agar medium, 37° C.
# [21] = tested on: Providencia rettgeri GN 311; test: MIC, standard serial dilution method; details: Muller-Hinton agar medium, 37° C.
# [22] = tested on: Providencia rettgeri GN 466; test: MIC, standard serial dilution method; details: Muller-Hinton agar medium, 37° C.
# Serratia marcescens = test: MIC, standard serial dilution method; details: Muller-Hinton agar medium, 37° C.
# [23] = tested on: Pseudomonas aeruginosa A3; test: MIC, standard serial dilution method; details: Muller-Hinton agar medium, 37° C.
# [24] = tested on: Pseudomonas aeruginosa GN315; test: MIC, standard serial dilution method; details: Muller-Hinton agar medium, 37° C.
# [25] = tested on: Klebsiella pneumonia PCI 602; test: MIC, standard serial dilution method; details: Klebsiella pneumonia PCI 602 (Table 2); Muller-Hinton agar medium, 37° C.
# Candida albicans 3147 = test: MIC, standard serial dilution method; details: Muller-Hinton agar medium, 37° C.
Compound,Minimum growth inhibitory concentrations (MIC.) [1] [µg/mL],Minimum growth inhibitory concentrations (MIC.) [2] [µg/mL],Minimum growth inhibitory concentrations (MIC.) [3] [µg/mL],Minimum growth inhibitory concentrations (MIC.) [4] [µg/mL],Minimum growth inhibitory concentrations (MIC.) [5] [µg/mL],Minimum growth inhibitory concentrations (MIC.) [6] [µg/mL],Minimum growth inhibitory concentrations (MIC.) [7] [µg/mL],Minimum growth inhibitory concentrations (MIC.) [8] [µg/mL],Minimum growth inhibitory concentrations (MIC.) [9] [µg/mL],Minimum growth inhibitory concentrations (MIC.) [10] [µg/mL],Minimum growth inhibitory concentrations (MIC.) (Bacillus anthracis) [µg/mL],Minimum growth inhibitory concentrations (MIC.) [11] [µg/mL],Minimum growth inhibitory concentrations (MIC.) [12] [µg/mL],Minimum growth inhibitory concentrations (MIC.) [13] [µg/mL],Minimum growth inhibitory concentrations (MIC.) [14] [µg/mL],Minimum growth inhibitory concentrations (MIC.) (Escherichia coli NIHJ) [µg/mL],Minimum growth inhibitory concentrations (MIC.) (Escherichia coli K-12) [µg/mL],Minimum growth inhibitory concentrations (MIC.) (Escherichia coli BEM 11) [µg/mL],Minimum growth inhibitory concentrations (MIC.) [15] [µg/mL],Minimum growth inhibitory concentrations (MIC.) (Escherichia coli BE 1186) [µg/mL],other results
CNC(=O)CC1NC(=O)c2csc(n2)-c2ccc(-c3nc(C(=O)NCCCCCC(=O)OC)cs3)nc2-c2csc(n2)-c2csc(n2)C(C(C)C)NC(=O)CNC(=O)c2csc(n2)C(C(C)C)NC(=O)c2nc1sc2C (stereo not shown) [Compound No. 1],50,> 100,> 100,> 100,> 100,> 100,> 100,> 100,> 100,3.13,0.98,> 100,> 100,3.13,> 100,> 100,> 100,> 100,> 100,> 100,Minimum growth inhibitory concentrations (MIC.) [16]: > 100 µg/mL; Minimum growth inhibitory concentrations (MIC.) [17]: > 100 µg/mL; Minimum growth inhibitory concentrations (MIC.) [18]: > 100 µg/mL; Minimum growth inhibitory concentrations (MIC.) (Shigella sonnei JS 11746): > 100 µg/mL; Minimum growth inhibitory concentrations (MIC.) (Salmonella typhi T-63): > 100 µg/mL; Minimum growth inhibitory concentrations (MIC.) [19]: > 100 µg/mL; Minimum growth inhibitory concentrations (MIC.) (Proteus vulgaris OX 19): > 100 µg/mL; Minimum growth inhibitory concentrations (MIC.) [20]: > 100 µg/mL; Minimum growth inhibitory concentrations (MIC.) [21]: > 100 µg/mL; Minimum growth inhibitory concentrations (MIC.) [22]: > 100 µg/mL; Minimum growth inhibitory concentrations (MIC.) (Serratia marcescens): > 100 µg/mL; Minimum growth inhibitory concentrations (MIC.) [23]: > 50 µg/mL; Minimum growth inhibitory concentrations (MIC.) [24]: > 100 µg/mL; Minimum growth inhibitory concentrations (MIC.) [25]: > 100 µg/mL; Minimum growth inhibitory concentrations (MIC.) (Candida albicans 3147): > 100 µg/mL
CNC(=O)CC1NC(=O)c2csc(n2)-c2ccc(-c3nc(C(=O)NCCCCCC(=O)O)cs3)nc2-c2csc(n2)-c2csc(n2)C(C(C)C)NC(=O)CNC(=O)c2csc(n2)C(C(C)C)NC(=O)c2nc1sc2C (stereo not shown) [Compound No. 2],0.1,0.1,0.2,0.2,0.2,0.2,0.2,0.39,0.39,0.1,< 0.03,1.56,0.2,0.1,0.31,> 100,> 100,> 100,> 100,> 100,Minimum growth inhibitory concentrations (MIC.) [16]: 3.13 µg/mL; Minimum growth inhibitory concentrations (MIC.) [17]: > 100 µg/mL; Minimum growth inhibitory concentrations (MIC.) [18]: > 100 µg/mL; Minimum growth inhibitory concentrations (MIC.) (Shigella sonnei JS 11746): > 100 µg/mL; Minimum growth inhibitory concentrations (MIC.) (Salmonella typhi T-63): > 100 µg/mL; Minimum growth inhibitory concentrations (MIC.) [19]: 6.25 µg/mL; Minimum growth inhibitory concentrations (MIC.) (Proteus vulgaris OX 19): > 100 µg/mL; Minimum growth inhibitory concentrations (MIC.) [20]: > 100 µg/mL; Minimum growth inhibitory concentrations (MIC.) [21]: > 100 µg/mL; Minimum growth inhibitory concentrations (MIC.) [22]: > 100 µg/mL; Minimum growth inhibitory concentrations (MIC.) (Serratia marcescens): > 100 µg/mL; Minimum growth inhibitory concentrations (MIC.) [23]: > 50 µg/mL; Minimum growth inhibitory concentrations (MIC.) [24]: > 100 µg/mL; Minimum growth inhibitory concentrations (MIC.) [25]: > 100 µg/mL; Minimum growth inhibitory concentrations (MIC.) (Candida albicans 3147): > 100 µg/mL
